# Test system: MCF7
# Experiment: Cytotoxicity against human MCF7 cells assessed as growth inhibition at 10^-5 M after 72 hrs by MTT assay relative to control
# Assay type: functional
# Conditions: MCF7, 72 h, read-out: GI
row,Structure (SMILES),inhibition of growth at 10 µM [%]
1,COc1cc2ccc(=O)oc2cc1OC(=O)/C=C/c1cc(OC)c(OC)c(OC)c1,18
2,COc1cc2cc(NC(=O)/C=C/c3ccc(C(F)(F)F)cc3)c(=O)oc2cc1O,12.6
3,COc1cc2cc(NC(=O)/C=C/c3cc(OC)c(OC)c(OC)c3)c(=O)oc2cc1O,18.3
4,COc1cc2ccc(=O)oc2cc1OC(=O)/C=C/c1ccc(C#N)cc1,10.5
5,COc1cc2cc(NC(=O)/C=C/c3ccc(C#N)cc3)c(=O)oc2cc1O,27.3
6,COc1ccc(/C=C/C(=O)Oc2cc3oc(=O)ccc3cc2OC)cc1,13.7
7,COc1cc(CCC(=O)Oc2cc3oc(=O)ccc3cc2OC)ccc1O,8.55
8,COc1cc2ccc(=O)oc2cc1OC(=O)/C=C/c1ccc(F)cc1,1.77
9,COc1cc(/C=C/C(=O)Oc2cc3oc(=O)ccc3cc2OC)ccc1OCc1ccccc1,9.91

# Test system: not listed separately
# Experiment: Cytotoxicity against human HCT116 cells assessed as growth inhibition at 10^-5 M after 72 hrs by MTT assay relative to control
# Assay type: functional
# Conditions: HCT-116, 72 h, read-out: GI
row,Structure (SMILES),inhibition of growth at 10 µM [%]
1,COc1cc2ccc(=O)oc2cc1OC(=O)/C=C/c1cc(OC)c(OC)c(OC)c1,18.9
2,COc1cc2cc(NC(=O)/C=C/c3ccc(C(F)(F)F)cc3)c(=O)oc2cc1O,17
3,COc1cc2cc(NC(=O)/C=C/c3cc(OC)c(OC)c(OC)c3)c(=O)oc2cc1O,7.11
4,COc1cc2ccc(=O)oc2cc1OC(=O)/C=C/c1ccc(C#N)cc1,13.6
5,COc1cc2cc(NC(=O)/C=C/c3ccc(C#N)cc3)c(=O)oc2cc1O,14.1
6,COc1ccc(/C=C/C(=O)Oc2cc3oc(=O)ccc3cc2OC)cc1,31.6
7,COc1cc(CCC(=O)Oc2cc3oc(=O)ccc3cc2OC)ccc1O,16.1
8,COc1cc2ccc(=O)oc2cc1OC(=O)/C=C/c1ccc(F)cc1,18
9,COc1cc(/C=C/C(=O)Oc2cc3oc(=O)ccc3cc2OC)ccc1OCc1ccccc1,4.36

# Test system: MDA-MB-231
# Experiment: Cytotoxicity against human MDA-MB-231 cells assessed as growth inhibition at 10^-5 M after 72 hrs by MTT assay relative to control
# Assay type: functional
# Conditions: MDA-MB-231, 72 h, read-out: GI
row,Structure (SMILES),inhibition of growth at 10 µM [%]
1,COc1cc2ccc(=O)oc2cc1OC(=O)/C=C/c1cc(OC)c(OC)c(OC)c1,11.8
2,COc1cc2cc(NC(=O)/C=C/c3ccc(C(F)(F)F)cc3)c(=O)oc2cc1O,24.6
3,COc1cc2cc(NC(=O)/C=C/c3cc(OC)c(OC)c(OC)c3)c(=O)oc2cc1O,12.9
4,COc1cc2ccc(=O)oc2cc1OC(=O)/C=C/c1ccc(C#N)cc1,14.3
5,COc1cc2cc(NC(=O)/C=C/c3ccc(C#N)cc3)c(=O)oc2cc1O,13.1
6,COc1ccc(/C=C/C(=O)Oc2cc3oc(=O)ccc3cc2OC)cc1,20.8
7,COc1cc(CCC(=O)Oc2cc3oc(=O)ccc3cc2OC)ccc1O,9.73
8,COc1cc2ccc(=O)oc2cc1OC(=O)/C=C/c1ccc(F)cc1,19.3
9,COc1cc(/C=C/C(=O)Oc2cc3oc(=O)ccc3cc2OC)ccc1OCc1ccccc1,1.39

# Test system: A549
# Experiment: Cytotoxicity against human A549 cells assessed as growth inhibition at 10^-5 M after 72 hrs by MTT assay relative to control
# Assay type: functional
# Conditions: A549, 72 h, read-out: GI
row,Structure (SMILES),inhibition of growth at 10 µM [%]
1,COc1cc2ccc(=O)oc2cc1OC(=O)/C=C/c1cc(OC)c(OC)c(OC)c1,20.6
2,COc1cc2cc(NC(=O)/C=C/c3ccc(C(F)(F)F)cc3)c(=O)oc2cc1O,26.4
3,COc1cc2cc(NC(=O)/C=C/c3cc(OC)c(OC)c(OC)c3)c(=O)oc2cc1O,4.87
4,COc1cc2ccc(=O)oc2cc1OC(=O)/C=C/c1ccc(C#N)cc1,17.9
5,COc1cc2cc(NC(=O)/C=C/c3ccc(C#N)cc3)c(=O)oc2cc1O,36.9
6,COc1ccc(/C=C/C(=O)Oc2cc3oc(=O)ccc3cc2OC)cc1,0.53
7,COc1cc(CCC(=O)Oc2cc3oc(=O)ccc3cc2OC)ccc1O,6.16
8,COc1cc2ccc(=O)oc2cc1OC(=O)/C=C/c1ccc(F)cc1,21.4
9,COc1cc(/C=C/C(=O)Oc2cc3oc(=O)ccc3cc2OC)ccc1OCc1ccccc1,10.4

# Test system: HeLa
# Experiment: Cytotoxicity against human HeLa cells assessed as growth inhibition at 10^-5 M after 72 hrs by MTT assay relative to control
# Assay type: functional
# Conditions: read-out: GI
row,Structure (SMILES),inhibition of growth at 10 µM [%]
1,COc1cc2ccc(=O)oc2cc1OC(=O)/C=C/c1cc(OC)c(OC)c(OC)c1,0.93
2,COc1cc2cc(NC(=O)/C=C/c3ccc(C(F)(F)F)cc3)c(=O)oc2cc1O,19
3,COc1cc2cc(NC(=O)/C=C/c3cc(OC)c(OC)c(OC)c3)c(=O)oc2cc1O,9.45
4,COc1cc2ccc(=O)oc2cc1OC(=O)/C=C/c1ccc(C#N)cc1,13.2
5,COc1cc2cc(NC(=O)/C=C/c3ccc(C#N)cc3)c(=O)oc2cc1O,27.1
6,COc1ccc(/C=C/C(=O)Oc2cc3oc(=O)ccc3cc2OC)cc1,19.5
7,COc1cc(CCC(=O)Oc2cc3oc(=O)ccc3cc2OC)ccc1O,15.4
8,COc1cc2ccc(=O)oc2cc1OC(=O)/C=C/c1ccc(F)cc1,3.89
9,COc1cc(/C=C/C(=O)Oc2cc3oc(=O)ccc3cc2OC)ccc1OCc1ccccc1,2.36

# — ChEMBL document CHEMBL3407428, “Synthesis, in vitro and in vivo antitumor activity of scopoletin-cinnamic acid hybrids” (Eur J Med Chem, 2015)
